Patent US6197768A, “Pyridocarbazole derivatives having cgmp-pde inhibitory activity” (Mochida Pharmaceutical Co., Ltd., priority 1996, dated 2001)
Structures can show the parent of a compound that is named as a salt.

Columns and labels:
coronary artery diameter = test: Coronary Artery Diameter Increasing Action in anesthetized dogs; type: in vivo, adult mongrel dogs; details: for Coronary artery diameter (relative to nitroglycerin): maximal change as ratio to 10 μg/kg nitroglycerin
Procedure: (§1) Adult mongrel dogs were thoracotomized under anesthesia with α-chloralose and the circumflex branch of the left coronary artery was […]; a pair of ultrasonic crystals were attached to the tunica extima for measuring the diameter of the coronary artery whereas an electromagnetic flow probe was attached to the peripheral side to measure the coronary blood flow. Nitroglycerin, dipyridamole and each test compound were administered intravenously for comparison. Each test compound was dissolved in dimethylformamide and diluted sequentially with polyethylene glycol 200 and water to give respective proportions of 20, 50 and 30% (v/v). The results are shown in Table 3, in which the maximal changes in the diameter of the coronary artery and the coronary blood flow are expressed in terms of the ratio to the respective changes caused by 10 μg/kg of nitroglycerin.

coronary blood flow = test: Coronary blood flow in anesthetized dogs; type: in vivo, adult mongrel dogs; details: maximal change as ratio to 10 μg/kg nitroglycerin
Procedure: as §1

PDE type I = test: PDE Inhibiting Activity, type I; type: biochemical, dog (canine aorta); details: PDE type I from canine aorta, 1 μM substrate, pH 7.5; read-out: Inhibition Activity IC50, Type I
Procedure: (§2) On the basis of the method of Lugnier et al. (Biochem. Pharmacol., 35, 1743-1751, 1986), PDE was purified from the aorta in a dog. The canine aorta was minced and homogenized with a Waring Blender and a glass homogenizer in six volumes of a Tris-HCl buffer solution (pH 7.5, 20 mM) containing 2 mM magnesium acetate, 5 mM ethylenediaminetetraacetic acid (EDTA), 100 μg/mL of phenylmethylsulforyl fluoride and 15 mM 2-mercaptoethanol (2-ME), and centrifuged at 1200 xg for 30 min. The supernatant was separated and salted out with ammonium sulfate which was added to 45% saturation. The resulting precipitated fraction was resuspended in a Tris-HCl buffer solution (pH 7.5, 20 mM) containing 2 mM magnesium acetate and 1 mM 2-ME, dialyzed overnight and applied to a DEAE-trisacryl column (DEAE […] M:IBF). By elution with a sodium chloride gradient (0-0.4 M), PDE types V and III were separated from the other isozymes. The supernatant fraction of 45% saturated ammonium sulfate was further mixed with ammonium sulfate to 65% saturation and salted out. The resulting precipitated fraction was similarly applied to the DEAE-trisacryl column and eluted by a sodium chloride gradient (0-0.4 M) so as to separate PDE type I.
(§3) The thus obtained PDE types V, III and I were measured for their activity in accordance with the method of Thompson et al. (Adv. Cyclic Nucleotide Res., 10, 69-72, 1979) and the method of Wells et al. (Biochim. Biophys. Acta, 384, 430-443, 1975). Specifically, a purified PDE sample was added to 50 mM Tris-HCl buffer solution (pH 7.5) containing 1 μM of substrate cGMP or cAMP (containing tritium-labelled cGMP or cAMP), 1 mM EGTA and 2 mM magnesium acetate. For PDE activity measurement, enzymatically produced 5' GMP or 5' AMP was further hydrolyzed into guanosine or adenosine with snake venom and separated from the substrate by means of an ion-exchange resin (Dowex 1-X2), followed by measuring with a scintillation counter. The activity of each test compound was determined as a percentage of the DPE activity measured when it was added as a dimethyl sulfoxide solution (DMSO) and its IC50 (50% inhibition concentration) was calculated by the probit method. The final concentration of DMSO was adjusted to be no more than 2% in consideration of the effect on PDE activity.

PDE type V = target: T1, PDE type V (Canis lupus familiaris, UniProt O77746); test: PDE Inhibiting Activity, type V (cGMP-PDE); type: biochemical, dog (canine aorta); details: PDE type V from canine aorta, 1 μM substrate, pH 7.5; read-out: Inhibition Activity IC50, Type V
T1 construct: PDE was purified from the aorta in a dog; from tissue; host or cells: dog aorta
Procedure: as §2
The thus obtained PDE types V, III and I were measured for their activity in accordance with the method of Thompson et al. (Adv. Cyclic Nucleotide Res., 10, 69-72, 1979) and the method of Wells et al. (Biochim. Biophys. Acta, 384, 430-443, 1975). Specifically, a purified PDE sample was added to 50 mM Tris-HCl buffer solution (pH 7.5) containing 1 μM of substrate cGMP or cAMP (containing tritium-labelled cGMP or cAMP), 1 mM EGTA and 2 mM magnesium acetate. […] The activity of each test compound was determined as a percentage of the DPE activity measured when it was added as a dimethyl sulfoxide solution (DMSO) and its IC50 (50% inhibition concentration) was calculated by the probit method. […]

PDE type III = target: T2, PDE type III (Canis lupus familiaris, UniProt A0A8I3NYE0); test: PDE Inhibiting Activity, type III; type: biochemical, dog (canine aorta); details: PDE type III from canine aorta, 1 μM substrate, pH 7.5; read-out: Inhibition Activity IC50, Type III
T2 construct: PDE was purified from the aorta in a dog; from tissue; host or cells: dog aorta
T2 sequence (A0A8I3NYE0 1-1135): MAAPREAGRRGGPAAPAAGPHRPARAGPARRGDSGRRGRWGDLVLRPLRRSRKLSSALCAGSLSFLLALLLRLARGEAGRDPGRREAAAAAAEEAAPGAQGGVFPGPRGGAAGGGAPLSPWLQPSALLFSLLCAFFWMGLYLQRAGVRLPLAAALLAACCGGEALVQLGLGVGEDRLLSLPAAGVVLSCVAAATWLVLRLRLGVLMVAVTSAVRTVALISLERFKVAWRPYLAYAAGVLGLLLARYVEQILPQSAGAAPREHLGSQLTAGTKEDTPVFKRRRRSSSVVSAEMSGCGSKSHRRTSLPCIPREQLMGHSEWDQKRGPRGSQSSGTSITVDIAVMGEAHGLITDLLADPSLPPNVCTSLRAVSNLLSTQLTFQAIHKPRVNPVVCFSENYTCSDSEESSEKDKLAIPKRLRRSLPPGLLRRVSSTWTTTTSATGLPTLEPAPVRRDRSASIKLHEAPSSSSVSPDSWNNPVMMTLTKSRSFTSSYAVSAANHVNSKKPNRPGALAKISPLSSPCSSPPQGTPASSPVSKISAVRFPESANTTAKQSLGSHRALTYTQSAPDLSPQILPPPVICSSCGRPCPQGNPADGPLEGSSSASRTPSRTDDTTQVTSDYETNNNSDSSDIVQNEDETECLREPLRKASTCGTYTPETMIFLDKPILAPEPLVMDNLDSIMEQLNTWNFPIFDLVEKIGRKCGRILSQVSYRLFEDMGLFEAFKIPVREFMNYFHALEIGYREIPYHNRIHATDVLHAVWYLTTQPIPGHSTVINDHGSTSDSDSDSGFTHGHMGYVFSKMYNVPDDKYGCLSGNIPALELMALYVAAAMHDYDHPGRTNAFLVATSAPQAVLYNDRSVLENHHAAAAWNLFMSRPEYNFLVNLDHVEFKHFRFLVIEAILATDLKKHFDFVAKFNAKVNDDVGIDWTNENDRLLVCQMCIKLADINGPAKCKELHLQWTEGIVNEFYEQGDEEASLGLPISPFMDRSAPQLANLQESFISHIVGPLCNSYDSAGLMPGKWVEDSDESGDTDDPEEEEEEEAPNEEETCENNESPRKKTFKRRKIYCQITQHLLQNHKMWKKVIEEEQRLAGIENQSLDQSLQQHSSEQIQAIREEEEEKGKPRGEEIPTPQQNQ
Procedure: as §2, §3

[1] = tested on: vascular smooth muscle cells isolated from aortic media; details: Garg et al. 1989; Nakaki et al. 1990; cited from earlier work
systemic blood pressure = test: Systemic blood (aortic) pressure lowering in anesthetized dogs; type: in vivo, adult mongrel dogs; details: Canis lupus familiaris, iv, read-out: Reduction in systemic blood pressure
Procedure: (§4) Adult mongrel dogs were anesthetized by intramuscular administration of 20 mg/kg of ketamine and intravenous administration of 20 mL/kg of physiological saline containing 5 mg/mL of α-chloralose; under artificial respiration, the aortic pressure was measured with a catheter inserted into the femoral artery and the pulmonary arterial pressure with a Swan-Ganz catheter inserted into the pulmonary artery. Anesthesia was maintained by intravenous administration of physiological saline containing 5 mg/mL of α-chloralose at a rate of 5 mL/kg per hour. Comparison was made between nitroglycerin, nifedipine and test compounds which were administered intravenously at doses of 0.01-1 mg/kg. Each test compound was dissolved in dimethylformamide (DMF) and sequentially diluted with polyethylene glycol 200 and water to give respective proportions of 20, 50 and 30% (v/v) and administrated by injection into the right femoral vein in a volume of 0.3 mL/kg. The results are shown in Table 2 below, in which maximal percent decreases in the pulmonary arterial pressure and aortic pressure are listed to show the effectiveness of each test compound in lowering the pulmonary arterial pressure and the systemic blood pressure, respectively.

[2] = tested on: pulmonary arterial pressure; test: Pulmonary Arterial Pressure Lowering Action in anesthetized dogs; type: in vivo, adult mongrel dogs
Procedure: as §4

SMILES: OCCN(CCO)c1nc(N2CCCCC2)c2nc(N(CCO)CCO)nc(N3CCCCC3)c2n1 [Dipyridamole, dipyridamole, reference compound]
- Coronary artery diameter (relative to nitroglycerin) (coronary artery diameter; 0.03 mg/kg intravenous): 0.17
- coronary artery diameter versus coronary blood flow (in words) (coronary artery diameter; intravenous, anesthetized dogs): increased more of the coronary blood flow than the coronary artery diameter
- Coronary blood flow (relative to nitroglycerin) (coronary blood flow; 0.03 mg/kg intravenous): 2.66

SMILES: CCCOC(=O)COc1cc2c(=O)c(Cc3cccnc3)cn3c4ccc(Br)cc4c(c1)c23 [Example 7, 10-bromo-2-n-propoxycarbonylmethyloxy-5-(3-pyridylmethyl)-4H-pyrido [3,2,1-jk]carbazole-4-one]
- IC50 (PDE type I): > 30 µM
- IC50 (PDE type V): 0.0043 µM
- IC50 (PDE type III): > 30 µM

SMILES: Nc1nc2c(nc(Br)n2[C@@H]2O[C@@H]3COP(=O)(O)O[C@H]3[C@H]2O)c(=O)[nH]1 [Example 8-bromo-cGMP, 8-bromo-cGMP]
- proliferation of cultured vascular smooth muscle cells (in words) [1]: suppressed

SMILES: O=C(COc1cc2c(=O)c(Cc3cccnc3)cn3c4ccc(Br)cc4c(c1)c23)OC1CCCCC1 [Example 15]
- IC50 (PDE type I): > 30 µM
- IC50 (PDE type V): 0.045 µM
- IC50 (PDE type III): 15 µM

SMILES: O=c1c(Cc2cccnc2)cn2c3ccccc3c3cc(O)cc1c32 [Example 155]
- IC50 (PDE type I): 48 µM
- Coronary artery diameter (relative to nitroglycerin) (coronary artery diameter; 1 mg/kg intravenous): 1.47
- IC50 (PDE type III): 7.3 µM
- Coronary blood flow (relative to nitroglycerin) (coronary blood flow; 1 mg/kg intravenous): 0.79

SMILES: O=c1ccn2c3ccc(Cl)cc3c3cccc1c32 [Example 193, 10-chloro-4H-pyrido[3,2,1-jk]carbazole-4-one]
- IC50 (PDE type I): > 100 µM
- inhibition in vivo at 0.3 mg/kg (systemic blood pressure; 0.3 mg/kg intravenous, anesthetized dogs, maximal percent decrease): 1%
- inhibition in vivo at 0.3 mg/kg ([2]; Canis lupus familiaris, iv, 0.3 mg/kg intravenous, anesthetized dogs, maximal percent decrease, read-out: Reduction in pulmonary arterial pressure): 16%
- Coronary artery diameter (relative to nitroglycerin) (coronary artery diameter; 1 mg/kg intravenous): 1.44
- IC50 (PDE type III): 6.9 µM
- Coronary blood flow (relative to nitroglycerin) (coronary blood flow; 1 mg/kg intravenous): 1.40

SMILES: O=c1ccn2c3ccc(Cl)cc3c3cc(Cl)cc1c32 [Example 264, 2,10-dichlor-4H-pyrido[3,2,1-jk]carbazole-4-one]
- IC50 (PDE type I): > 30 µM
- IC50 (PDE type V): 0.08 µM
- IC50 (PDE type III): > 30 µM

SMILES: O=c1c(Cc2cccnc2)cn2c3cc(Br)ccc3c3cc(OCCCO)cc1c32 [Example 278, 9-bromo-2-(3-hydroxyoropyloxy)-5-(3-pyridylmethyl)-4H-pyrido[3,2,1-jk]carbazole-4-one hydrochloride]
- Coronary artery diameter (relative to nitroglycerin) (coronary artery diameter; 1 mg/kg intravenous): 1.50
- Coronary blood flow (relative to nitroglycerin) (coronary blood flow; 1 mg/kg intravenous): 0.04

SMILES: O=[N+]([O-])OCC(CO[N+](=O)[O-])O[N+](=O)[O-] [Nitroglycerin, nitroglycerin, reference compound]
- proliferation of cultured vascular smooth muscle cells (in words) [1]: suppressed
- inhibition in vivo at 0.01 mg/kg (systemic blood pressure): 30%
- inhibition in vivo at 0.01 mg/kg ([2]; Canis lupus familiaris, iv, read-out: Reduction in pulmonary arterial pressure): 19%
- pulmonary arterial versus systemic blood pressure lowering (in words) ([2]; intravenous, anesthetized dogs): lowered the systemic blood pressure by greater degrees than the pulmonary arterial pressure
